Measurements reported in patent EP4707280A1, “1,4-CINEOLE DERIVATIVE AND INTERMEDIATE THEREOF, HERBICIDE CONTAINING SAID DERIVATIVE AS ACTIVE INGREDIENT, METHOD FOR USING HERBICIDE, AND METHOD FOR PREPARING AGROCHEMICAL COMPOSITION” (HOKKO CHEMICAL INDUSTRY CO., LTD., priority 2023, dated 2024).

Key:
Assay type in all cases: in vivo
Digitaria ciliaris [1] = experiment: Test Example 7: herbicidal effect test by soil application in upland field (low dose); details: 7.5 g per 10 ares, sprayed one day after sowing, 14 days after application; for inhibition at 75 g/ha: Digitaria ciliaris, read-out: weed inhibition rate
How it was run: (§1)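 Pre-emergence soil application: upland alluvial loam pots sown with weed seeds mixed into the top 1 cm; one day after sowing, a water-diluted emulsifiable concentrate was sprayed on the soil at 100 L per 10 a, delivering 7.5 g active ingredient per 10 a. Weed inhibition rate (%) scored 14 days after application, duplicate pots.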

Echinochloa crus-galli [2] = experiment: as above; details: 7.5 g per 10 ares, sprayed one day after sowing, 14 days after application; for inhibition at 75 g/ha: Echinochloa crus-galli, read-out: weed inhibition rate
How it was run: as §1

[3] = system: Echinochloa crus-galli var. formosensis; experiment: Test Example 5: herbicidal effect test by soil application in paddy rice (low dose); details: 7.5 g per 10 ares, applied immediately after sowing, flooded pots, 14 days after application; for inhibition at 75 g/ha: Echinochloa crus-galli, soil, 336 h, read-out: weed inhibition rate
How it was run: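 Paddy soil in Wagner pots was fertilized (N:P:K 16:16:16), puddled, sown with 30 seeds per weed species at 0–1 cm, then flooded to ~3 cm in a glass greenhouse. Emulsifiable concentrate diluted in water was dropper-applied into floodwater immediately, at 7.5 g active ingredient per 10 ares; duplicates, scored at 14 days.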

Digitaria ciliaris [4] = experiment: Test Example 3: herbicidal effect test by soil application in upland field; details: 120 g per 10 ares, sprayed one day after sowing, 14 days after application; for inhibition at 1200 g/ha: Digitaria ciliaris, read-out: weed inhibition rate
How it was run: (§2)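 Pre-emergence test: seeds mixed into top 1 cm of alluvial loam upland soil in pots; emulsifiable concentrate diluted in water sprayed on soil one day after sowing at 100 L/10 a, 120 g a.i./10 a. Weed inhibition rate (%) scored at 14 days, in duplicate.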

Echinochloa crus-galli [5] = experiment: as above; details: 120 g per 10 ares, sprayed one day after sowing, 14 days after application; for inhibition at 1200 g/ha: Echinochloa crus-galli, read-out: weed inhibition rate
How it was run: as §2

Scirpus juncoides [6] = experiment: Test Example 1: herbicidal effect test by soil application in paddy rice; details: 120 g active ingredient per 10 ares, applied immediately after sowing, flooded pots, 14 days after application; for pest or weed control at 1200 g/ha: Schoenoplectiella juncoides, soil, 336 h, read-out: weed inhibition rate
How it was run: (§3)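 Soil-applied test under flooded paddy conditions (~3 cm water) in a glass greenhouse. Seeds were sown shallow (0–1 cm, 30 per species), then compound was dripped in as diluted emulsifiable concentrate at 120 g a.i./10 a.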

[7] = system: Echinochloa crus-galli var. formosensis; experiment: as above; details: 120 g active ingredient per 10 ares, applied immediately after sowing, flooded pots, 14 days after application; for pest or weed control at 1200 g/ha: Echinochloa crus-galli, soil, 336 h, read-out: weed inhibition rate
How it was run: as §3

Echinochloa crus-galli [8] = experiment: Test Example 4: herbicidal effect test by stem and leaf treatment in upland field; details: 120 g per 10 ares, sprayed seven days after sowing, upland soil, 14 days after application; for inhibition at 1200 g/ha: Echinochloa crus-galli, read-out: weed inhibition rate
Scirpus juncoides [9] = experiment: Test Example 2: herbicidal effect test by application during growth period of paddy rice; details: 120 g per 10 ares, applied seven days after sowing, flooded pots, 14 days after application; for inhibition at 1200 g/ha: Schoenoplectiella juncoides, read-out: weed inhibition rate
How it was run: (§4)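 Paddy soil in Wagner pots was puddled with N:P:K 16:16:16 fertilizer, sown with 30 weed seeds per species at 0–1 cm and flooded to about 3 cm. Seven days after sowing, a water-diluted emulsifiable concentrate was dropped onto the water at 120 g active ingredient per 10 ares. Weed inhibition (%) was scored at 14 days, in duplicate.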

[10] = system: Echinochloa crus-galli var. formosensis; experiment: as above; details: 120 g per 10 ares, applied seven days after sowing, flooded pots, 14 days after application; for inhibition at 1200 g/ha: Echinochloa crus-galli, read-out: weed inhibition rate
How it was run: as §4

Digitaria ciliaris [11] = experiment: Test Example 8: herbicidal effect test by stem and leaf treatment in upland field (low dose); details: 7.5 g per 10 ares, sprayed seven days after sowing, upland soil, 14 days after application; for inhibition at 75 g/ha: Digitaria ciliaris, read-out: weed inhibition rate
Echinochloa crus-galli [12] = experiment: as above; details: 7.5 g per 10 ares, sprayed seven days after sowing, upland soil, 14 days after application; for inhibition at 75 g/ha: Echinochloa crus-galli, read-out: weed inhibition rate
Digitaria ciliaris [13] = experiment: Test Example 4: herbicidal effect test by stem and leaf treatment in upland field; details: 120 g per 10 ares, sprayed seven days after sowing, upland soil, 14 days after application; for inhibition at 1200 g/ha: Digitaria ciliaris, read-out: weed inhibition rate
[14] = system: Echinochloa crus-galli var. formosensis; experiment: Test Example 6: herbicidal effect test by application during growth period of paddy rice (low dose); details: 7.5 g per 10 ares, applied seven days after sowing, flooded pots, 14 days after application; for inhibition at 75 g/ha: Echinochloa crus-galli, read-out: weed inhibition rate
How it was run: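 Paddy-soil pots, flooded ~3 cm after sowing weed seeds at 0-1 cm depth, greenhouse-grown. Seven days after sowing, diluted emulsifiable concentrate applied by dropper at 7.5 g active ingredient per 10 ares. Weed inhibition rate (%) scored 14 days after application, in duplicate.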

COc1ccccc1CO[C@@H]1C[C@]2(C(C)C)O[C@@]1(C)C[C@@H]2I [1-747, (1R,2S,4S,5R)-2-iodo-1-isopropyl-5-[(2-methoxyphenyl)methoxy]-4-methyl-7-oxabicyclo[2.2.1]heptane]
≥ 80%: inhibition at 75 g/ha (Digitaria ciliaris [1]) | inhibition at 75 g/ha (Echinochloa crus-galli [2]) | inhibition at 75 g/ha [3] | inhibition at 1200 g/ha (Digitaria ciliaris [4]) | inhibition at 1200 g/ha (Echinochloa crus-galli [5]) | pest or weed control at 1200 g/ha (Scirpus juncoides [6]) | pest or weed control at 1200 g/ha [7] | inhibition at 1200 g/ha (Echinochloa crus-galli [8]) | inhibition at 1200 g/ha (Scirpus juncoides [9]) | inhibition at 1200 g/ha [10] | inhibition at 75 g/ha (Digitaria ciliaris [11]) | inhibition at 75 g/ha (Echinochloa crus-galli [12]) | inhibition at 1200 g/ha (Digitaria ciliaris [13]) | inhibition at 75 g/ha [14]

CC(C)[C@]12C[C@@H](OCc3ccccc3Cl)[C@](C)(C[C@@H]1I)O2 [1-756, (1R,2S,4S,5R)-5-[(2-chlorophenyl)methoxy]-2-iodo-1-isopropyl-4-methyl-7-oxabicyclo[2.2.1]heptane]
≥ 80%: inhibition at 75 g/ha (Digitaria ciliaris [1]) | inhibition at 75 g/ha (Echinochloa crus-galli [2]) | inhibition at 75 g/ha [3] | inhibition at 1200 g/ha (Digitaria ciliaris [4]) | inhibition at 1200 g/ha (Echinochloa crus-galli [5]) | pest or weed control at 1200 g/ha (Scirpus juncoides [6]) | pest or weed control at 1200 g/ha [7] | inhibition at 1200 g/ha (Echinochloa crus-galli [8]) | inhibition at 1200 g/ha (Scirpus juncoides [9]) | inhibition at 1200 g/ha [10] | inhibition at 75 g/ha (Digitaria ciliaris [11]) | inhibition at 75 g/ha (Echinochloa crus-galli [12]) | inhibition at 1200 g/ha (Digitaria ciliaris [13]) | inhibition at 75 g/ha [14]

CC(C)[C@]12C[C@@H](OCc3ccccc3Br)[C@](C)(C[C@@H]1I)O2 [1-759, (1R,2S,4S,5R)-5-[(2-bromophenyl)methoxy]-2-iodo-1-isopropyl-4-methyl-7-oxabicyclo[2.2.1]heptane]
≥ 80%: inhibition at 75 g/ha (Digitaria ciliaris [1]) | inhibition at 75 g/ha (Echinochloa crus-galli [2]) | inhibition at 75 g/ha [3] | inhibition at 1200 g/ha (Digitaria ciliaris [4]) | inhibition at 1200 g/ha (Echinochloa crus-galli [5]) | pest or weed control at 1200 g/ha (Scirpus juncoides [6]) | pest or weed control at 1200 g/ha [7] | inhibition at 1200 g/ha (Echinochloa crus-galli [8]) | inhibition at 1200 g/ha (Scirpus juncoides [9]) | inhibition at 1200 g/ha [10] | inhibition at 75 g/ha (Digitaria ciliaris [11]) | inhibition at 75 g/ha (Echinochloa crus-galli [12]) | inhibition at 1200 g/ha (Digitaria ciliaris [13]) | inhibition at 75 g/ha [14]

CC(C)[C@]12C[C@@H](OCc3ccccc3I)[C@](C)(C[C@@H]1I)O2 [1-762, (1R,2S,4S,5R)-2-iodo-5-[(2-iodophenyl)methoxy]-1-isopropyl-4-methyl-7-oxabicyclo[2.2.1]heptane]
≥ 80%: inhibition at 75 g/ha (Digitaria ciliaris [1]) | inhibition at 75 g/ha (Echinochloa crus-galli [2]) | inhibition at 75 g/ha [3] | inhibition at 1200 g/ha (Digitaria ciliaris [4]) | inhibition at 1200 g/ha (Echinochloa crus-galli [5]) | pest or weed control at 1200 g/ha (Scirpus juncoides [6]) | pest or weed control at 1200 g/ha [7] | inhibition at 1200 g/ha (Echinochloa crus-galli [8]) | inhibition at 1200 g/ha (Scirpus juncoides [9]) | inhibition at 1200 g/ha [10] | inhibition at 75 g/ha (Digitaria ciliaris [11]) | inhibition at 75 g/ha (Echinochloa crus-galli [12]) | inhibition at 1200 g/ha (Digitaria ciliaris [13]) | inhibition at 75 g/ha [14]

CC(C)[C@]12C[C@@H](OCc3ccccc3C#N)[C@](C)(C[C@@H]1I)O2 [1-768, 2-[[(l S,2R,4R,5S)-5-iodo-4-isopropyl-l-methyl-7-oxabicyclo[2.2.1]heptan-2-yl]oxymethyl]benzonitrile]
≥ 80%: weed inhibition rate (Digitaria ciliaris [1]) | weed inhibition rate (Echinochloa crus-galli [2]) | weed inhibition rate [3] | weed inhibition rate (Digitaria ciliaris [4]) | weed inhibition rate (Echinochloa crus-galli [5]) | weed inhibition rate (Scirpus juncoides [6]) | weed inhibition rate [7] | weed inhibition rate (Echinochloa crus-galli [8]) | weed inhibition rate (Scirpus juncoides [9]) | weed inhibition rate [10] | weed inhibition rate (Digitaria ciliaris [11]) | weed inhibition rate (Echinochloa crus-galli [12]) | weed inhibition rate (Digitaria ciliaris [13]) | weed inhibition rate [14]

Cc1cccc(C)c1CO[C@@H]1C[C@]2(C(C)C)O[C@@]1(C)C[C@@H]2I [1-777, (1R,2S,4S,5R)-5-[(2,6-dimethylphenyl)methoxy]-2-iodo-1-isopropyl-4-methyl-7-oxabicyclo[2.2.1]heptane]
≥ 80%: inhibition at 75 g/ha (Digitaria ciliaris [1]) | inhibition at 75 g/ha (Echinochloa crus-galli [2]) | inhibition at 75 g/ha [3] | inhibition at 1200 g/ha (Digitaria ciliaris [4]) | inhibition at 1200 g/ha (Echinochloa crus-galli [5]) | pest or weed control at 1200 g/ha (Scirpus juncoides [6]) | pest or weed control at 1200 g/ha [7] | inhibition at 1200 g/ha (Echinochloa crus-galli [8]) | inhibition at 1200 g/ha (Scirpus juncoides [9]) | inhibition at 1200 g/ha [10] | inhibition at 75 g/ha (Digitaria ciliaris [11]) | inhibition at 75 g/ha (Echinochloa crus-galli [12]) | inhibition at 1200 g/ha (Digitaria ciliaris [13]) | inhibition at 75 g/ha [14]

CC(C)[C@]12C[C@@H](OCc3c(F)cccc3F)[C@](C)(C[C@@H]1I)O2 [1-778, (1R,2S,4S,5R)-5-[(2,6-difluorophenyl)methoxy]-2-iodo-1-isopropyl-4-methyl-7-oxabicyclo[2.2.1]heptane]
≥ 80%: inhibition at 75 g/ha (Digitaria ciliaris [1]) | inhibition at 75 g/ha (Echinochloa crus-galli [2]) | inhibition at 75 g/ha [3] | inhibition at 1200 g/ha (Digitaria ciliaris [4]) | inhibition at 1200 g/ha (Echinochloa crus-galli [5]) | pest or weed control at 1200 g/ha (Scirpus juncoides [6]) | pest or weed control at 1200 g/ha [7] | inhibition at 1200 g/ha (Echinochloa crus-galli [8]) | inhibition at 1200 g/ha (Scirpus juncoides [9]) | inhibition at 1200 g/ha [10] | inhibition at 75 g/ha (Digitaria ciliaris [11]) | inhibition at 75 g/ha (Echinochloa crus-galli [12]) | inhibition at 1200 g/ha (Digitaria ciliaris [13]) | inhibition at 75 g/ha [14]
